# Data from ChEMBL document CHEMBL1153831, “Azithromycin blocks quorum sensing and alginate polymer formation and increases the sensitivity to serum and stationary-growth-phase killing of Pseudomonas aeruginosa and attenuates chronic P. aeruginosa lung infection in Cftr(-/-) mice” (Antimicrob Agents Chemother, 2007).
# Activity calls are given as the source filed them. No cut-off for these calls is given here.
# What was measured:
# [1] = tested on: Pseudomonas aeruginosa; assay: Inhibition of quorum sensing-regulated elastase production in Pseudomonas aeruginosa NH57388A mucoid isolate harboring GFP-fused […] lasB gene assessed as enzyme activity per cell at 4 ug/mL after 24 hrs relative to control; type: functional
# [2] = tested on: Pseudomonas aeruginosa; assay: Antimicrobial activity against Pseudomonas aeruginosa NH57388C nonmucoid isolate expressing quorum sensing lasI assessed as reduction of viable count at 12 ug/mL in absence of 2.5% human normal serum; type: functional
# [3] = Drug level in Cftr-tml-Unc-TgN(FABPCFTR) cystic fibrosis mouse serum at 500 mg/kg, po after 4 hrs; type: ADME, organism-based; set-up: dose 500 mg/kg, route oral; conditions: read-out: Drug uptake
# [4] = tested on: Pseudomonas aeruginosa; assay: Antimicrobial activity against quorum sensing lasI-deficient isogenic Pseudomonas aeruginosa NH57388E nonmucoid isolate assessed as reduction of viable count at 12 ug/mL in absence of 2.5% human normal serum; type: functional
# [5] = tested on: Pseudomonas aeruginosa; assay: Inhibition of quorum sensing in Pseudomonas aeruginosa NH57388A mucoid isolate harboring GFP-fused […] lasB gene assessed as suppression of GFP expression after 14 hrs by molecular technology; type: functional, organism-based
# [6] = tested on: Pseudomonas aeruginosa; assay: Antimicrobial activity against Pseudomonas aeruginosa NH57388C nonmucoid isolate expressing quorum sensing lasI assessed as reduction of viable count at 12 ug/mL in presence of 2.5% human normal serum; type: functional
# [7] = tested on: Pseudomonas aeruginosa; assay: Antimicrobial activity in Pseudomonas aeruginosa NH57388A mucoid isolate harboring GFP-fused avian sarcoma virus lasB gene infected in ftr-tml-Unc-TgN(FABPCFTR) cystic fibrosis mouse lung assessed as fibrous spongy-like material surrounding polymorphonuclear leukocytes at 500 mg/kg, po administered 24 hrs after infection daily once for 5 days measured after 7 days postinfection by histopathology; type: functional, organism-based; set-up: dose 500 mg/kg
# [8] = tested on: Pseudomonas aeruginosa; assay: Increase in sensitivity of hydrogen peroxide to Pseudomonas aeruginosa NH57388A mucoid isolate expressing quorum sensing lasI assessed as increase in zone of inhibition at 12 ug/mL after 48 hrs relative to untreated bacterial control; type: functional; set-up: scale not given: the % may be the effect or the level left
# [9] = tested on: Pseudomonas aeruginosa; assay: Inhibition of quorum sensing-regulated alginate production in Pseudomonas aeruginosa NH57388A mucoid isolate harboring GFP-fused […] lasB gene assessed as enzyme activity per cell at 8 ug/mL after 24 hrs relative to control; type: functional
# [10] = tested on: Pseudomonas aeruginosa; assay: Antimicrobial activity against quorum sensing lasI-deficient isogenic Pseudomonas aeruginosa NH57388D mucoid isolate assessed as reduction of viable count at 12 ug/mL in presence of 2.5% human normal serum; type: functional
# [11] = tested on: Pseudomonas aeruginosa; assay: Inhibition of quorum sensing-regulated chitinase production in Pseudomonas aeruginosa NH57388A mucoid isolate harboring GFP-fused […] lasB gene assessed as enzyme activity per cell at 4 ug/mL after 24 hrs relative to control; type: functional
# [12] = tested on: Pseudomonas aeruginosa; assay: Inhibition of quorum sensing-regulated alginate production in Pseudomonas aeruginosa NH57388A mucoid isolate harboring GFP-fused […] lasB gene assessed as enzyme activity per cell at 2 ug/mL after 24 hrs relative to control; type: functional
# [13] = tested on: Pseudomonas aeruginosa; assay: Inhibition of quorum sensing-regulated elastase production in Pseudomonas aeruginosa NH57388A mucoid isolate harboring GFP-fused […] lasB gene assessed as enzyme activity per cell at 8 ug/mL after 24 hrs relative to control; type: functional
# [14] = Elimination half life in human; type: ADME, organism-based; conditions: in vivo, read-out: beta t1/2 (converted)
# [15] = tested on: Pseudomonas aeruginosa; assay: Inhibition of quorum sensing-regulated chitinase production in Pseudomonas aeruginosa NH57388A mucoid isolate harboring GFP-fused […] lasB gene assessed as enzyme activity per cell at 8 ug/mL after 24 hrs relative to control; type: functional
# [16] = tested on: Pseudomonas aeruginosa; assay: Antimicrobial activity against quorum sensing lasI-deficient isogenic Pseudomonas aeruginosa NH57388D mucoid isolate assessed as reduction of viable count at 12 ug/mL in absence of 2.5% human normal serum; type: functional
# [17] = tested on: Pseudomonas aeruginosa; assay: Antimicrobial activity against Pseudomonas aeruginosa NH57388A mucoid isolate assessed as reduction of viable count in exponential phase at 256 ug/mL after 8 hrs; type: functional
# [18] = tested on: Pseudomonas aeruginosa; assay: Inhibition of alginate synthesis in Pseudomonas aeruginosa NH57388A mucoid isolate supernatant assessed as uronic acid fraction out of the dialysis bag of total amount of uronic acids after exhaustive dialysis at 12 ug/mL after 24 hrs by carbazole-borate assay; type: functional; set-up: scale not given: the % may be the effect or the level left
# [19] = tested on: Pseudomonas aeruginosa; assay: Inhibition of alginate synthesis in Pseudomonas aeruginosa NH57388A mucoid isolate supernatant assessed as uronic acid fraction out of the dialysis bag of total amount of uronic acids after equilibrium dialysis at 12 ug/mL after 24 hrs by carbazole-borate assay; type: functional; set-up: scale not given: the % may be the effect or the level left
# [20] = tested on: Pseudomonas aeruginosa; assay: Antimicrobial activity against Pseudomonas aeruginosa NH57388A mucoid isolate harboring GFP-fused […] lasB gene infected in ftr-tml-Unc-TgN(FABPCFTR) cystic fibrosis mouse lungs assessed as reduction in GFP signal at 250 mg/kg, iv administered 24 hrs after infection measured after 24 hrs; type: functional, organism-based; set-up: dose 250 mg/kg
# [21] = tested on: Pseudomonas aeruginosa; assay: Antimicrobial activity against Pseudomonas aeruginosa NH57388A mucoid isolate expressing quorum sensing lasI assessed as reduction of viable count at 12 ug/mL in absence of 2.5% human normal serum; type: functional
# [22] = species: Mus musculus; assay: Elimination half life in healthy mouse; type: ADME, organism-based; conditions: in vivo
# [23] = tested on: Pseudomonas aeruginosa; assay: Toxicity in Pseudomonas aeruginosa NH57388A mucoid isolate harboring GFP-fused […] lasB gene assessed as growth rate at 2 to 12 ug/mL after 14 hrs by molecular technology relative to control; type: organism-based
# [24] = tested on: Pseudomonas aeruginosa; assay: Inhibition of alginate synthesis in Pseudomonas aeruginosa NH57388A mucoid isolate supernatant assessed as uronic acid concentration in dialysis bag before exhaustive dialysis at 12 ug/mL after 24 hrs by carbazole-borate assay; type: functional
# [25] = tested on: Pseudomonas aeruginosa; assay: Inhibition of alginate synthesis in Pseudomonas aeruginosa NH57388A mucoid isolate supernatant assessed as uronic acid concentration in outside of dialysis bag after equilibrium dialysis at 12 ug/mL after 24 hrs by carbazole-borate assay; type: functional
structure (smiles),measurement,setting,value
CC[C@H]1OC(=O)[C@H](C)[C@@H](O[C@H]2C[C@@](C)(OC)[C@@H](O)[C@H](C)O2)[C@H](C)[C@@H](O[C@@H]2O[C@H](C)C[C@H](N(C)C)[C@H]2O)[C@](C)(O)C[C@@H](C)CN(C)[C@H](C)[C@@H](O)[C@]1(C)O [AZITHROMYCIN],inhibition at 4 µg/mL,[1],45%
same,CFU,[2],110 ×10⁵ /ml
same,concentration at 4 h,[3],1700 ng/mL
same,CFU,[4],3.8 ×10⁷ /ml
same,Activity,[5],Dose-dependent effect
same,CFU,[6],0 mL
same,Activity,[7],Active
same,Activity,[8],31%
same,inhibition at 8 µg/mL,[9],52%
same,CFU,[10],8.6 ×10⁵ /ml
same,inhibition at 4 µg/mL,[11],15%
same,inhibition at 2 µg/mL,[12],63%
same,inhibition at 8 µg/mL,[13],51%
same,half-life,[14],68 h
same,inhibition at 8 µg/mL,[15],10%
same,CFU,[16],55 ×10⁶ /ml
same,Activity,[17],99%
same,Activity,[18],67.4%
same,Activity,[19],31.2%
same,Activity,[20],Active
same,CFU,[21],31 ×10⁶ /ml
same,beta t1/2,[22],0.733 h
same,Activity,[23],Non-toxic
same,Activity,[24],316 µg/mL
same,Activity,[25],143 µg/mL
